# Like-named read-outs stand apart in the source and are kept apart here.
# Key:
# MiaPaca2 (AR low) = test: ATP-dependent proliferation assay with 10 nM DHT, pancreatic cancer cells (Examples 3, 4, 7); conditions: for TI on Resting PBMC: IC50 resting PBMC / IC50 MiaPaca2; for TI on Stimulated PBMC: IC50 stimulated PBMC / IC50 MiaPaca2; for IC50: MiaPaca2
# Protocol: (§1) The experimental method consisted of: • 1. […] After 24 hrs, 10 nM DHT (dihydrotestosterone) with or without anti-androgen compounds, or DMSO vehicle (negative control) was added to the cultures. • 3.
# (§2) Data from Experiment 1 were fitted through sigmoidal dose response curves and analyzed using Prizm statistical analysis software. […] The results from 2 sets of experiments follow.
# (§3) Data from Experiment 1 was fitted through sigmoidal dose response curves and analyzed using Prizm statistical analysis software.
# Panc1 (AR+) = test: as above; conditions: for TI on Resting PBMC: IC50 resting PBMC / IC50 Panc1; for TI on Stimulated PBMC: IC50 stimulated PBMC / IC50 Panc1; for IC50: Panc1
# Protocol: as §1, §2, §3
# stimulated PBMC [1] = test: IC50 on stimulated (actively dividing) PBMC; format: cell-based, human
# Protocol: The compound toxicity was determined as follow:
# Therapeutic Index=Safety/Potency=IC50 stimulated PBMC/IC50 cancer cell
# resting PBMC = test: IC50 on resting (quiescent) PBMC; format: cell-based, human; conditions: read-out: IC50 on Resting PBMC
# Protocol: The IC50 in PBMCs were tested in 2 different activation status: • stimulated—actively dividing cells • resting—quiescent, non-dividing cells
# The IC50 in PBMCs were tested in 2 different activation status: • Stimulated—actively dividing cells • Resting—quiescent, non-dividing cells.
# IC50 of the compounds was determined on fresh cells isolated from human blood (PBMC).
# HT29 = test: MTT colorimetric assay on epithelial intestinal cancer cells; format: cell-based; conditions: for Therapeutic Index (TI), Resting PBMC: IC50 resting PBMC / IC50 HT29; for Therapeutic Index (TI), Stimulated PBMC: IC50 stimulated PBMC / IC50 HT29
# Protocol: The experiment was performed to test and define anticancer activity in vitro of Cortexolone 17α-benzoate and cortexolone 17α-valerate, 21-propionate on cell lines representatives of epithelial intestinal tumours, namely HT29. The experiment method consisted in: • 1. Monolayer HT-29 cells were plated in: 96-wells plates at the density of 2×10^4 cells/mL. The cells plated were kept at 37° C. in 5% CO2 and left to attach for 24 h. • 2. […] After 72 h of treatment, the MTT colorimetric assay was performed.
# LNCaP = test: ATP-dependent cell viability assay (Cell Titer Glo), Example 12; conditions: LNCaP
# From the text: (§4) Data shown in Table I were fitted through sigmoidal dose response curves and analyzed using Prizm statistical.
# MiaPaca2 = test: as above; conditions: MiaPaca2
# From the text: as §4
# PC3 = test: as above; conditions: PC3
# From the text: as §4
# Panc1 = test: as above; conditions: Panc1
# From the text: as §4
# BxPC3 = test: In vitro proliferation, larger panel (Example 14); conditions: BxPC3
# From the text: as §4
# MCF7 = test: In vitro proliferation / cytotoxic assay on breast cancer cells (Examples 14, 25); conditions: MCF7
# Protocol: as §4
# For the cytotoxic assay, cells were seeded in 96-well flat bottom culture plates in media containing charcoal stripped serum. After 24 hours, test compounds were added to the cells. DMSO was used as the vehicle negative control and RU486 as the positive control. After 72 hour incubation, cells were harvested and lysed to determine cell viability using the Cell Titer Glow assay.
# stimulated PBMC [2] = test: IC50 on stimulated (actively dividing) PBMC; format: cell-based, human; conditions: PBMC Stim; Table IV
# [3] = Experiment 1, 0 = higher toxicity in PBMC
# [4] = Experiment 1, sigmoidal dose response fit, 10 nM DHT, 3 days
# [5] = Experiment 2, nonlinear regression least squares fit, additional experiments
# [6] = Tables I and II, titrated 3 uM to 200 uM, 3 days
# [7] = read-out: In vitro proliferation IC50, Table IV
structure (smiles),measurement,setting,value
"CCCCC(=O)O[C@]1(C(=O)COC(=O)CC)CC[C@H]2[C@@H]3CCC4=CC(=O)CC[C@]4(C)[C@H]3CC[C@@]21C [CB-03-10, cortexolone 17α-valerate-21-propionate]",TI on Resting PBMC,MiaPaca2 (AR low); [3],3
same,TI on Resting PBMC,MiaPaca2 (AR low); Experiment 2,3
same,TI on Stimulated PBMC,MiaPaca2 (AR low); [3],3
same,TI on Stimulated PBMC,MiaPaca2 (AR low); Experiment 2,3
same,IC50,"MiaPaca2 (AR low); Example 7, Experiment 1",34 µM
same,IC50,"MiaPaca2 (AR low); Example 7, Experiment 2",37 µM
same,IC50,MiaPaca2 (AR low); [4],43 µM
same,IC50,MiaPaca2 (AR low); [5],37 µM
same,TI on Resting PBMC,Panc1 (AR+); [3],2
same,TI on Resting PBMC,Panc1 (AR+); Experiment 2,2
same,TI on Stimulated PBMC,Panc1 (AR+); [3],2
same,TI on Stimulated PBMC,Panc1 (AR+); Experiment 2,2
same,IC50,"Panc1 (AR+); Example 7, Experiment 1",68 µM
same,IC50,"Panc1 (AR+); Example 7, Experiment 2",60 µM
same,IC50,Panc1 (AR+); [4],66 µM
same,IC50,Panc1 (AR+); [5],60 µM
same,IC50,"stimulated PBMC [1]; Example 7, Experiment 1, read-out: IC50 on Stimulated PBMC",106 µM
same,IC50,"stimulated PBMC [1]; Example 7, Experiment 2, read-out: IC50 on Stimulated PBMC",94 µM
same,IC50,"stimulated PBMC [1]; PBMC STIMULATED, Table IV, read-out: In vitro proliferation IC50",94 µM
same,IC50,"resting PBMC; Example 7, Experiment 1",114 µM
same,IC50,"resting PBMC; Example 7, Experiment 2",120 µM
same,Inhibition (%) on HT29,"HT29; 0.8 micromolar, 72 h",0.44%
same,Inhibition (%) on HT29,"HT29; 4 micromolar, 72 h",14.23%
same,Inhibition (%) on HT29,"HT29; 20 micromolar, 72 h",25.49%
same,Inhibition (%) on HT29,"HT29; 100 micromolar, 72 h",89.77%
same,Inhibition (%) on HT29,"HT29; 500 micromolar, 72 h",92.10%
same,IC50,"HT29; HT29, MTT, 72 h, read-out: IC50 Calculated",34.2 µM
same,Therapeutic Index = IC50 resting PBMC/IC50 cancer cell,"HT29; HT29, Table IV",3
same,IC50,"HT29; HT29, Table IV, read-out: In vitro proliferation IC50",34 µM
same,Therapeutic Index = IC50 stimulated PBMC/IC50 cancer cell,"HT29; HT29, Table VII",3
same,"Therapeutic Index (TI), Resting PBMC",HT29; Experiment 1,3
same,"Therapeutic Index (TI), Resting PBMC",HT29; Experiment 2,4
same,"Therapeutic Index (TI), Stimulated PBMC",HT29; Experiment 1,3
same,"Therapeutic Index (TI), Stimulated PBMC",HT29; Experiment 2,3
same,Therapeutic Index = IC50 resting PBMC/IC50 cancer cell,LNCaP; Table IV,9
same,Therapeutic Index = IC50 stimulated PBMC/IC50 cancer cell,LNCaP; Table VII,9
same,IC50,LNCaP; [6],10 µM
same,IC50,LNCaP; [7],10 µM
same,Therapeutic Index = IC50 resting PBMC/IC50 cancer cell,MiaPaca2; Table IV,3
same,Therapeutic Index = IC50 stimulated PBMC/IC50 cancer cell,MiaPaca2; Table VII,3
same,IC50,MiaPaca2; [6],37 µM
same,IC50,MiaPaca2; [7],37 µM
same,Therapeutic Index = IC50 resting PBMC/IC50 cancer cell,PC3; Table IV,2
same,Therapeutic Index = IC50 stimulated PBMC/IC50 cancer cell,PC3; Table VII,2
same,IC50,PC3; [6],53 µM
same,IC50,PC3; [7],53 µM
same,Therapeutic Index = IC50 resting PBMC/IC50 cancer cell,Panc1; Table IV,2
same,Therapeutic Index = IC50 stimulated PBMC/IC50 cancer cell,Panc1; Table VII,2
same,IC50,Panc1; [6],60 µM
same,IC50,Panc1; [7],60 µM
same,Therapeutic Index = IC50 resting PBMC/IC50 cancer cell,BxPC3; Table IV,3
same,Therapeutic Index = IC50 stimulated PBMC/IC50 cancer cell,BxPC3; Table VII,3
same,IC50,BxPC3; [7],30 µM
same,Therapeutic Index = IC50 resting PBMC/IC50 cancer cell,MCF7; Table IV,3
same,Therapeutic Index = IC50 stimulated PBMC/IC50 cancer cell,MCF7; Table VII,3
same,IC50,MCF7; [7],28 µM
same,Therapeutic Index = IC50 resting PBMC/IC50 cancer cell,stimulated PBMC [2],1

# — US10231980B2, “Cortexolone 17alpha-benzoate for use in the treatment of tumours” (COSMO TECHNOLOGIES LTD., priority 2014, dated 2019)
